# Laboratory results: ChEMBL document CHEMBL1137417, “Design, synthesis, and biological evaluation of hydroquinone derivatives of 17-amino-17-demethoxygeldanamycin as potent, water-soluble inhibitors of Hsp90” (J Med Chem, 2006)
# Key:
# SK-BR-3 = test: Inhibition of human SKBR3 cell growth; assay type: functional
# SK-OV-3 = test: Inhibition of human SKOV3 cell growth; assay type: functional
# Heat shock protein HSP90 [1] = target: T1, Heat shock protein HSP90 (Homo sapiens, UniProt P07900+P08238); test: Inhibition of BODIPY-AG binding to human HSP90; assay type: protein assay
# Heat shock protein HSP90 [2] = target: T1, Heat shock protein HSP90; test: Upregulation of Hsp70 in SKBR3 cells; assay type: functional, cell-based; settings: sk-br-3
# Endoplasmin = Endoplasmin (Canis lupus familiaris, UniProt P41148); test: Inhibition of BODIPY-AG binding to dog Grp94
# Endoplasmin, sequence (P41148 whole entry): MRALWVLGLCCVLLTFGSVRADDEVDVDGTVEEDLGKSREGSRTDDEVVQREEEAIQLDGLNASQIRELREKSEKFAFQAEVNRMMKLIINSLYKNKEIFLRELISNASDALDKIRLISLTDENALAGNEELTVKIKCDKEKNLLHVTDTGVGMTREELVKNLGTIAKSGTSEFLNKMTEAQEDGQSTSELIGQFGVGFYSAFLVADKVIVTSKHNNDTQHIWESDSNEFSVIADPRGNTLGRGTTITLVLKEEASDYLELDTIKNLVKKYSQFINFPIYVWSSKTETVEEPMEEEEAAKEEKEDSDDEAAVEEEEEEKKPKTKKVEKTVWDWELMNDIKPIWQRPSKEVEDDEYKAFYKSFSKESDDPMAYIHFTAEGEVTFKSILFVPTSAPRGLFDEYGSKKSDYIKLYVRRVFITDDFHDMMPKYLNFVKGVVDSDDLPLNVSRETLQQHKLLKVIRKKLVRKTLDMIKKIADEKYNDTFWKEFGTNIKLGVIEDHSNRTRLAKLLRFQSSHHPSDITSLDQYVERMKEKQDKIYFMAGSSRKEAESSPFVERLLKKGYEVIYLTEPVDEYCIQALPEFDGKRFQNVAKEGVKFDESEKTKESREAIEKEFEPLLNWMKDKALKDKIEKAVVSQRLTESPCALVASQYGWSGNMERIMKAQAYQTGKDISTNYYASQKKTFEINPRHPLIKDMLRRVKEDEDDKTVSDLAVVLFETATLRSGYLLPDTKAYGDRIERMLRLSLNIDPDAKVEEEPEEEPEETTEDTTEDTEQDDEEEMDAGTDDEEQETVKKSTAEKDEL
# Heat shock protein HSP90 [3] = target: T1, Heat shock protein HSP90; test: Degradation of Her2 in SKOV3 cells; assay type: functional, cell-based; settings: sk-ov-3
# Heat shock protein HSP90 [4] = target: T1, Heat shock protein HSP90; test: Upregulation of Hsp70 in SKOV3 cells; assay type: functional, cell-based; settings: sk-ov-3
# Heat shock protein HSP90 [5] = target: T1, Heat shock protein HSP90; test: Degradation of Her2 in SKBR3 cells; assay type: functional, cell-based; settings: sk-br-3
Structure (SMILES),GI50 (SK-BR-3),GI50 (SK-OV-3),EC50 (Heat shock protein HSP90 [1]),EC50 (Heat shock protein HSP90 [2]),EC50 (Endoplasmin),EC50 (Heat shock protein HSP90 [3]),EC50 (Heat shock protein HSP90 [4]),EC50 (Heat shock protein HSP90 [5])
CO[C@H]1/C=C\C=C(/C)C(=O)Nc2cc(O)c(N)c(c2O)C[C@@H](C)C[C@H](OC)[C@H](O)[C@@H](C)/C=C(\C)[C@@H]1OC(N)=O.Cl,0.05 µM,0.017 µM,0.034 µM,0.058 µM,0.048 µM,0.031 µM,0.01 µM,–
CO[C@H]1/C=C\C=C(/C)C(=O)Nc2cc(O)c(NC[C@H](O)CO)c(c2O)C[C@@H](C)C[C@H](OC)[C@H](O)[C@@H](C)/C=C(\C)[C@@H]1OC(N)=O.Cl,0.832 µM,1.11 µM,0.091 µM,0.102 µM,0.131 µM,0.756 µM,> 10 µM,0.321 µM
CO[C@H]1/C=C\C=C(/C)C(=O)NC2=CC(=O)C(NC[C@H](O)CO)=C(C[C@@H](C)C[C@H](OC)[C@H](O)[C@@H](C)/C=C(\C)[C@@H]1OC(N)=O)C2=O,0.724 µM,2.02 µM,0.066 µM,0.14 µM,0.072 µM,4.585 µM,0.853 µM,0.141 µM
CO[C@H]1/C=C\C=C(/C)C(=O)NC2=CC(=O)C(N)=C(C[C@@H](C)C[C@H](OC)[C@H](O)[C@@H](C)/C=C(\C)[C@@H]1OC(N)=O)C2=O,0.025 µM,0.014 µM,0.034 µM,0.017 µM,0.048 µM,0.053 µM,0.006 µM,0.008 µM
C=CCNc1c(O)cc2nc3oc2c1C[C@@H](C)C[C@H](OC)[C@H](O)[C@@H](C)/C=C(\C)[C@H](OC(N)=O)[C@@H](OC)/C=C\C=C\3C.Cl,1.78 µM,0.371 µM,> 10 µM,–,> 10 µM,0.435 µM,3.229 µM,0.585 µM
C=CCn1c(=O)oc2cc3c(O)c(c21)C[C@@H](C)C[C@H](OC)[C@H](O)[C@@H](C)/C=C(\C)[C@H](OC(N)=O)[C@@H](OC)/C=C\C=C(/C)C(=O)N3,0.583 µM,1.24 µM,0.603 µM,0.384 µM,–,0.742 µM,2.283 µM,1.046 µM
C=CCN1C(=O)COc2cc3c(O)c(c21)C[C@@H](C)C[C@H](OC)[C@H](O)[C@@H](C)/C=C(\C)[C@H](OC(N)=O)[C@@H](OC)/C=C\C=C(/C)C(=O)N3,0.739 µM,0.726 µM,0.541 µM,0.311 µM,–,0.415 µM,1.005 µM,0.19 µM
Nc1ncnc2c1ncn2[C@@H]1O[C@H](COP(=O)(O)OP(=O)(O)O)[C@@H](O)[C@H]1O [ADENOSINE DIPHOSPHATE],–,–,87 µM,–,21 µM,–,–,–
Nc1ncnc2c1ncn2[C@@H]1O[C@H](COP(=O)(O)OP(=O)(O)OP(=O)(O)O)[C@@H](O)[C@H]1O [ADENOSINE TRIPHOSPHATE],–,–,1500 µM,–,19 µM,–,–,–
CO[C@H]1/C=C\C=C(/C)C(=O)NC2=CC(=O)C(NCCN(C)C)=C(C[C@@H](C)C[C@H](OC)[C@H](O)[C@@H](C)/C=C(\C)[C@@H]1OC(N)=O)C2=O [ALVESPIMYCIN],0.029 µM,0.032 µM,–,–,0.065 µM,–,–,–
C=CCNc1c(O)cc2c(O)c1C[C@@H](C)C[C@H](OC)[C@H](O)[C@@H](C)/C=C(\C)[C@H](OC(N)=O)[C@@H](OC)/C=C\C=C(/C)C(=O)N2.Cl [RETASPIMYCIN HYDROCHLORIDE],0.022 µM,0.052 µM,0.063 µM,–,0.119 µM,0.027 µM,0.016 µM,0.02 µM
C=CCNC1=C2C[C@@H](C)C[C@H](OC)[C@H](O)[C@@H](C)/C=C(\C)[C@H](OC(N)=O)[C@@H](OC)/C=C\C=C(/C)C(=O)NC(=CC1=O)C2=O [TANESPIMYCIN],0.017 µM,0.015 µM,–,–,0.124 µM,–,–,–
